Counter-ions that a name gives are not always drawn.
Assays:
[1] = test system: formalin-induced pain (paw licking behavior); assay: Rat formalin test (paw licking, acute and delayed/chronic phase); type: in vivo; conditions: for Acute paw lick response, Mean / Chronic (delayed) paw lick response, Mean / delayed paw licking responses vs. control: 100 μM; for Acute paw lick response, Mean / Chronic (delayed) paw lick response, Mean / delayed paw licking responses vs. control / enhancement of the effects of ketamine 100 μM: Example 4; for Paw licking time, Acute, Mean / Paw licking time, Chronic, Mean: NaOH where added equimolar; for Paw licking time, Acute, Mean: acute phase 0-10 min after formalin; for Paw licking time, Chronic, Mean: delayed phase from 10 min after formalin; for enhancement of the effects of ketamine 100 μM: hydroxide combined with ketamine 100 μM; for delayed hind paw licking (marginal means), Mean: TAS2R ligand .5 mM
Experimental: In this test, effects are measured on both acute and delayed formalin-induced pain, as reflected in paw licking behavior.
Methods: All studies were performed at Psychogenics, Inc. (Tarrytown, NY). Male SD rats (Envigo) were used in the study. All rats were examined and weighed (about 200 g) prior to initiation of the study to assure adequate health and suitability. For the formalin test, rats were habituated for 30 min in observation chambers with cameras positioned underneath. After the pre-treatment time, animals received a subcutaneous injection into the plantar surface of the left hind-paw with 15 μl of 5% formalin using a Hamilton micro-syringe and a 30-gauge needle.
Rats were returned to the observation chamber and immediately observed for behavior. The total time spent licking, flinching or biting the treated hind-paw over the next 35 min was recorded and videos were scored by a trained observer blinded to the treatment group. The acute response was evaluated in 5 min intervals for 0-10 min, and the delayed response was evaluated from 10-35 or 10-40 min.
For this experiment, effects of ketamine alone vs. ketamine+NaOH were assessed at concentrations between 30 uM (μM) and […] vs. control. Secondary analyses evaluated relative effects of ketamine+NaOH vs. ketamine alone. Analyses were performed by between-group t-tests or multiway ANOVA as expected. For each experiment, outliers ±2SD from the group means were removed from the analyses as flagged in study reports.
Methods: Overall methods were the same as for Example 1. However, for this study, the concentration of ketamine was fixed at 100 μM across conditions, and the ratio of NaOH to ketamine was varied from 1:10 (0.1 ratio) to 1:2 (0.5 ratio) to 3:4 (0.75 ratio) to 1:1 (1.0 ratio). An ANOVA was conducted across ratios to determine statistical significance.
Methods: Formalin test methods were the same as for examples 1 and 2. […] Denatonium was additionally administered combined with Ketamine 100 μM.
In order to evaluate the specificity of the synergistic effect between ketamine and NaOH, formalin tests were evaluated in combination with other hydroxides, including Ca(OH)2 and KOH. […] Formalin tests were therefore conducted in the presence of 100 μM S-ketamine relative to racemic ketamine.

[2] = test system: depression-related behaviors in SNL animals with chronic pain; assay: Forced swim test in spinal nerve ligation (SNL) rats; type: in vivo, rat; conditions: ketamine NaOH at 0.5 ratio, FIG. 5
Description: Chronic pain may also lead to depressive symptoms that cause additional disability and may reflect an independent treatment target. Anti-depression effects may be modeled in rodents using behavioral measures including the forced swim test, which measures the time that rodents remain immobile when placed in water. In one model, chronic pain Is created by spinal nerve ligation (SNL) in which a ligation is placed around the left L5 nerve, which leads to hypersensitivity of the paw withdrawal threshold.
Methods: Male Sprague Dawley rats (about 150 g on arrival) from Envigo were used. Upon receipt animals were group housed for the remainder of their stay at PsychoGenics. […]
Spinal nerve ligation: Under general anesthesia with continuous inhalation of isoflurane, surgery was performed with aseptic procedures. […] Each rat was monitored until awake and moving freely around the recovery chamber. […]
Forced swim test: The forced swim (FS) test is considered to predict anti-depression effects. When rats are forced to swim in a small cylinder from which no escape is possible, they readily adopt a characteristic immobile posture and make no further attempts to escape except for small movements needed to prevent them from drowning. […] Immobility, climbing, and swimming behaviors were recorded every 5 sec for a total of 60 counts per subject. […]

## CNC1(c2ccccc2Cl)CCCCC1=O (racemic) [Ketamine, Ketamine HCl]
[1]
  Acute paw lick response, Mean: 54.5
  Chronic (delayed) paw lick response, Mean: 196.4
  delayed paw licking responses vs. control: did not significantly reduce delayed responses
[1]; concentrations of ≥30 mM, all p<0.005
  inhibition of delayed response: significant inhibition of delayed response
[1]; doses of ≥100 mM, all p<0.001, suggesting non-specific behavioral effects
  effects on acute response: significant effects
[1]; ketamine 30 μM
  Paw licking time, Acute, Mean: 55.20 s
  Paw licking time, Chronic, Mean: 56.00 s
[1]; ketamine 30 μM, one-way ANOVA
  delayed response, post-hoc difference vs. control: significant post-hoc differences vs. control
[1]; ketamine 100 μM
  Paw licking time, Acute, Mean: 50.95 s
  Paw licking time, Chronic, Mean: 140.71 s
[1]; ketamine 300 μM
  Paw licking time, Acute, Mean: 40.50 s
  Paw licking time, Chronic, Mean: 147.00 s
[1]; ketamine 30 mM
  Paw licking time, Acute, Mean: 39.44 s
  Paw licking time, Chronic, Mean: 49.88 s
[1]; ketamine 100 mM
  Paw licking time, Acute, Mean: 0.11 s
  Paw licking time, Chronic, Mean: 0.00 s
[1]; ketamine 300 mM
  Paw licking time, Acute, Mean: 0.11 s
  Paw licking time, Chronic, Mean: 0.00 s
[2]
  immobility time: significantly reduced immobility time
  swimming time: increased swimming time

## [Ca+2].[OH-].[OH-] [Ca(OH)2]
[1]
  enhancement of the effects of ketamine 100 μM: Neither Ca(OH)2 or KOH enhanced

## CC[N+](CC)(CC(=O)Nc1c(C)cccc1C)Cc1ccccc1 [Denatonium, Denatonium benzoate]
[1]; 0.5 mM, p=0.029
  delayed hyperalgesic response vs. control: significant reduction in hyperalgesia
[1]
  delayed hind paw licking (marginal means), Mean: 161.0 s

## [K+].[OH-] [KOH]
[1]
  enhancement of the effects of ketamine 100 μM: Neither Ca(OH)2 or KOH enhanced

## C=C[C@H]1C[N@@]2CC[C@H]1C[C@@H]2[C@@H](O)c1ccnc2ccc(OC)cc12 [Quinidine, Quinidine gluconate]
[1]
  delayed hind paw licking (marginal means), Mean: 288.6 s

## CN[C@]1(c2ccccc2Cl)CCCCC1=O [S-ketamine]
[1]
  Acute paw lick response, Mean: 50.5
  Chronic (delayed) paw lick response, Mean: 120.6
  delayed paw licking responses vs. control: numeric decreases in delayed paw licking vs. control, but the differences were not statistically significant
